Test results from patent US10722471B2, “Galenic formulations of organic compounds” (Novartis AG, priority 2016, dated 2020).

Assay: Relative bioavailability and food effect of 200 mg LCZ696 mini-tablets vs 200 mg FMI tablet; randomized, open-label, single dose, crossover study;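 further: crossover design with one dose per period, healthy volunteers, 40 enrolled and 39 completing the study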
Settings: label = analyte; for extent of absorption (AUCs) with a high fat meal: LCZ696 200 mg mini-tablets sprinkled on pudding; for Cmax, geometric mean ratio, Mini tablets vs FMI tablet (Fasting) / AUCinf, geometric mean ratio, Mini tablets vs FMI tablet (Fasting) / AUClast, geometric mean ratio, Mini tablets vs FMI tablet (Fasting) / Cmax, geometric mean ratio, Pudding + High fat meal vs Pudding (Mini tablets) / AUCinf, geometric mean ratio, Pudding + High fat meal vs Pudding (Mini tablets) / AUClast, geometric mean ratio, Pudding + High fat meal vs Pudding (Mini tablets) / Cmax, geometric mean ratio, Pudding vs fasting (Mini tablets) / AUCinf, geometric mean ratio, Pudding vs fasting (Mini tablets) / AUClast, geometric mean ratio, Pudding vs fasting (Mini tablets): LCZ696 200 mg single oral dose, healthy subjects; for Cmax, geometric mean ratio, Mini tablets vs FMI tablet (Fasting) / AUCinf, geometric mean ratio, Mini tablets vs FMI tablet (Fasting) / AUClast, geometric mean ratio, Mini tablets vs FMI tablet (Fasting): test minitablets / reference FMI tablet; for Cmax, geometric mean ratio, Mini tablets vs FMI tablet (Fasting) / Cmax, geometric mean ratio, Pudding + High fat meal vs Pudding (Mini tablets) / Cmax, geometric mean ratio, Pudding vs fasting (Mini tablets): parameter head prints ng/ml; for AUCinf, geometric mean ratio, Mini tablets vs FMI tablet (Fasting) / AUClast, geometric mean ratio, Mini tablets vs FMI tablet (Fasting) / AUCinf, geometric mean ratio, Pudding + High fat meal vs Pudding (Mini tablets) / AUClast, geometric mean ratio, Pudding + High fat meal vs Pudding (Mini tablets) / AUCinf, geometric mean ratio, Pudding vs fasting (Mini tablets) / AUClast, geometric mean ratio, Pudding vs fasting (Mini tablets): parameter head prints ng·h/ml; for Cmax, geometric mean ratio, Pudding + High fat meal vs Pudding (Mini tablets) / AUCinf, geometric mean ratio, Pudding + High fat meal vs Pudding (Mini tablets) / AUClast, geometric mean ratio, Pudding + High fat meal vs Pudding (Mini tablets): test minitablets on pudding + high fat meal / reference minitablets with pudding; for Cmax, geometric mean ratio, Pudding vs fasting (Mini tablets) / AUCinf, geometric mean ratio, Pudding vs fasting (Mini tablets) / AUClast, geometric mean ratio, Pudding vs fasting (Mini tablets): test minitablets with pudding / reference minitablets; for decrease of Cmax with a high fat meal: single dose LCZ696 200 mg mini-tablets sprinkled on pudding

With `C[C@H](C[C@@H](Cc1ccc(-c2ccccc2)cc1)NC(=O)CCC(=O)O)C(=O)O` [LBQ657, (2R,4S)-5-biphenyl-4-yl-4-(3-carboxy-propionylamino)-2-methyl-pentanoic acid] the “extent of absorption (AUCs) with a high fat meal” value was “comparable”, the “Cmax, geometric mean ratio, Mini tablets vs FMI tablet (Fasting)” value (“Cmax, geometric mean ratio, Mini tablets” below) was 0.95 and the “AUCinf, geometric mean ratio, Mini tablets vs FMI tablet (Fasting)” value (“AUCinf, geometric mean ratio … (Fasting)” below) was 0.98. The “AUClast, geometric mean ratio, Mini tablets vs FMI tablet (Fasting)” value (“AUClast, geometric mean ratio … (Fasting)” below) was 0.98, the “Cmax, geometric mean ratio, Pudding + High fat meal vs Pudding (Mini tablets)” value was 0.81 and the “AUCinf, geometric mean ratio, Pudding + High fat meal vs Pudding (Mini tablets)” value was 1.02. The “AUClast, geometric mean ratio, Pudding + High fat meal vs Pudding (Mini tablets)” value was 1.02, the “Cmax, geometric mean ratio, Pudding vs fasting (Mini tablets)” value was 0.99 and the “AUCinf, geometric mean ratio, Pudding vs fasting (Mini tablets)” value was 1.01. The “AUClast, geometric mean ratio, Pudding vs fasting (Mini tablets)” value was 1.01 and the “decrease of Cmax with a high fat meal” value was 19%.
For `CCOC(=O)[C@H](C)C[C@@H](Cc1ccc(-c2ccccc2)cc1)NC(=O)CCC(=O)O` [Sacubitril, (2R,4S)-5-biphenyl-4-yl-4-(3-carboxy-propionylamino)-2-methyl-pentanoic acid ethyl ester], the “extent of absorption (AUCs) with a high fat meal” value was “comparable”, the “Cmax, geometric mean ratio, Mini tablets” value was 0.94 and the “AUCinf, geometric mean ratio … (Fasting)” value was 0.96. The “AUClast, geometric mean ratio … (Fasting)” value was 0.96, the “Cmax, geometric mean ratio, Pudding + High fat meal vs Pudding (Mini tablets)” value was 0.4 and the “AUCinf, geometric mean ratio, Pudding + High fat meal vs Pudding (Mini tablets)” value was 1.01. The “AUClast, geometric mean ratio, Pudding + High fat meal vs Pudding (Mini tablets)” value was 1.00, the “Cmax, geometric mean ratio, Pudding vs fasting (Mini tablets)” value was 1.00 and the “AUCinf, geometric mean ratio, Pudding vs fasting (Mini tablets)” value was 1.04. The “AUClast, geometric mean ratio, Pudding vs fasting (Mini tablets)” value was 1.04 and the “decrease of Cmax with a high fat meal” value was 60%.
In the case of `CCCCC(=O)N(Cc1ccc(-c2ccccc2-c2nnn[nH]2)cc1)[C@H](C(=O)O)C(C)C` [Valsartan, S—N-valeryl-N-{[2′-(1H-tetrazole-5-yl)-biphenyl-4-yl]-methyl}-valine], the “Cmax, geometric mean ratio, Mini tablets” value is reported as 1.09, the “AUCinf, geometric mean ratio … (Fasting)” value is reported as 1.11 and the “AUClast, geometric mean ratio … (Fasting)” value is reported as 1.11. For the same compound, the “Cmax, geometric mean ratio, Pudding + High fat meal vs Pudding (Mini tablets)” value was 0.43, the “AUCinf, geometric mean ratio, Pudding + High fat meal vs Pudding (Mini tablets)” value was 0.6 and the “AUClast, geometric mean ratio, Pudding + High fat meal vs Pudding (Mini tablets)” value was 0.59. For the same compound, the “Cmax, geometric mean ratio, Pudding vs fasting (Mini tablets)” value was 1.02, the “AUCinf, geometric mean ratio, Pudding vs fasting (Mini tablets)” value was 1.02 and the “AUClast, geometric mean ratio, Pudding vs fasting (Mini tablets)” value was 1.04. For the same compound, the “decrease of Cmax with a high fat meal” value was 57%.
